Measured values: US20120095060A1, “METHODS AND COMPOSITIONS OF MITOGEN-ACTIVATED PROTEIN KINASE (MAPK) PATHWAY INHIBITORS FOR TREATING PULMONARY FIBROSIS” (priority 2010, published 2012)

How the values were obtained:
[1] = system: TGF-α-induced pulmonary fibrosis; conditions: previous study; cited from earlier work
ERK1/2 = conditions: previously shown; cited from earlier work
[2] = system: established TGF-α-induced pulmonary fibrosis; assay: Rescue study of established fibrosis: lung histology (trichrome stain); assay type: in vivo; conditions: CCSP/TGF-α mice, 8 weeks total Dox, treatment during last 4 weeks
Procedure: To determine whether the ERK/MAPK pathway mediates the progression of established fibrosis, CCSP/TGFα mice were treated with ARRY following 4 weeks of Dox, while remaining on Dox for an additional 4 weeks (8 weeks total Dox, 4 week ARRY). Controls included CCSP/TGFα mice treated with vehicle while remaining on Dox an additional 4 weeks (8 weeks total Dox, 4 week vehicle). CCSP/TGFα mice began losing body weight after 4 weeks of Dox. […] See FIG. 6, illustrating that TGF-α was induced with doxycycline for 8 weeks in transgenic mice. ARRY added after 4 weeks of TGF-α expression attenuated weight loss, compared to vehicle-treated mice. […] See FIG. 8, illustrating that ARRY prevents progression of TGF-α induced fibrosis as assessed by lung histology using a trichrome stain. In FIG. 8, a representative sample from 4 mice per group includes low power (4×) and higher power (10×) of pleural fibrosis. […] Lung Histology and Immunohistochemistry: Mice were killed with pentobarbital sodium (65 mg/ml) euthanasia solution (Fort Dodge Animal Health, Fort Dodge, Iowa), and lungs were inflation fixed using 4% paraformaldehyde at 25 cm H2O of pressure, and then allowed to fix overnight at 4° C. Fixed lungs were then washed with phosphate-buffered saline (PBS), dehydrated through a graded series of ethanols, and processed for paraffin embedding. […]

[3] = system: TGF-α-induced pulmonary fibrosis; assay: Prevention study: lung histology (trichrome stain); assay type: in vivo, mice
From the text: To examine if ARRY prevented the physiologic effects of TGF-α-induced lung fibrosis, CCSP/TGF-α mice were given ARRY twice daily for 4 weeks while TGF-α was induced. […] More specifically, FIG. 3 illustrates that ARRY prevents TGF-α-mediated alterations in lung mechanics (*=p<0.05 compared to vehicle and ARRY-treated mice). […] Representative samples from four mice per group include low power (4×) and higher power (10×) of pleural fibrosis. […] To induce TGF-α expression, adult transgenic mice (8-12 weeks old) were placed on Doxycycline-containing drinking water (0.5 mg/ml) and food (62.5 mg/kg). Dox-containing water was replaced three times per week. Administration of […]) is a potent, highly specific, allosteric inhibitor of MEK1/2. ARRY is a second generation MEK inhibitor that targets the Ras-Raf-MEK-ERK pathway. ARRY was administered to mice twice daily by gavage, with the first dose at the time of TGF-α induction with doxycycline. Mice were then anesthetized (Isoflurane; Abbott Labs, Chicago, Ill.), and 37.5 mg/kg sterile ARRY142886 was administered by gavage using a 20 gauge feeding catheter (Harvard Apparatus, Holliston, Mass.). Mice were treated with vehicle or ARRY twice daily for up to 4 weeks. Mice were weighed at the beginning of the study and at weekly intervals. […]

[4] = system: phosphorylation of ERK1/2; assay: Western blot of lung homogenates for ERK1/2 phosphorylation in CCSP/TGF-α mice; assay type: in vivo; conditions: twice daily by gavage, 4 days of TGF-α induction, vs vehicle
Procedure: Western Blots: Western blot analysis was performed on lung homogenates of CCSP/TGF-α mice treated with 4 days of Dox. Controls were littermate single transgene CCSP/− mice treated with 1 day of Dox. Protein concentrations were assessed using a Bradford Assay and protein loaded on a 4%-20% Tris/glycine SDSPAGE (Invitrogen) and electroblotted to PVDF membranes (0.45 um: Bio-Rad). Blots were blocked with 5% nonfat dry milk in TBST (10 mM Tris, pH 8, 150 mM NaCl, 0.1% Tween 20) and incubated with antibodies against total and phosphorylated Erk (Cell Signaling Technology) and proliferating cell nuclear antigen (PCNA) (Cell Signaling Technology). Blots were washed in TBST and incubated with goat anti-rabbit horse radish peroxidase conjugated (Calbiochem, EMD Biosciences) secondary antibodies and developed on film by chemiluminescence using the ECL Plus system (Amersham Biosciences). Densitometry was performed using the volume integration function on a Phosphorlmager software Imagequant 5.2 (Molecular Dynamics, Sunnyvale, Calif.) after scanning the films.

[5] = system: TGF-α-induced pulmonary fibrosis; assay: Prevention study: total lung collagen (Sircol Collagen Assay); assay type: in vivo; conditions: CCSP/TGF-α mice, twice daily for 4 weeks from time of Dox
From the text: To examine if ARRY prevented the physiologic effects of TGF-α-induced lung fibrosis, CCSP/TGF-α mice were given ARRY twice daily for 4 weeks while TGF-α was induced. […] More specifically, FIG. 3 illustrates that ARRY prevents TGF-α-mediated alterations in lung mechanics (*=p<0.05 compared to vehicle and ARRY-treated mice). […] Representative samples from four mice per group include low power (4×) and higher power (10×) of pleural fibrosis. […] To induce TGF-α expression, adult transgenic mice (8-12 weeks old) were placed on Doxycycline-containing drinking water (0.5 mg/ml) and food (62.5 mg/kg). Dox-containing water was replaced three times per week. Administration of […]) is a potent, highly specific, allosteric inhibitor of MEK1/2. ARRY is a second generation MEK inhibitor that targets the Ras-Raf-MEK-ERK pathway. ARRY was administered to mice twice daily by gavage, with the first dose at the time of TGF-α induction with doxycycline. Mice were then anesthetized (Isoflurane; Abbott Labs, Chicago, Ill.), and 37.5 mg/kg sterile ARRY142886 was administered by gavage using a 20 gauge feeding catheter (Harvard Apparatus, Holliston, Mass.). […] Total Lung Collagen: Total lung collagen was determined by measuring total soluble collagen (Sircol Collagen Assay, Biocolor, Ireland). […] The optical density measured with a spectrophotometer (540 nm).

[6] = system: TGF-α-induced pulmonary fibrosis; assay: Prevention study: lung proliferation and matrix gene expression (Collagens I, III and Elastin); assay type: in vivo; conditions: TGF-α transgenic mice, 4 weeks twice daily, vs vehicle
Procedure: A 4-week study was performed to evaluate the physiologic effects of MEK1/2 kinase inhibition with ARRY on TGF-α-induced pulmonary fibrosis. ARRY was administered to TGF-α transgenic mice; a model for studying pulmonary fibrosis. Endpoints included changes in lung mechanics, lung histology, lung cell proliferation and changes in matrix gene expression (Collagens I, III and Elastin). Differences in the parameters were compared between mice treated with and without ARRY. Mice which over express TGF-α that were treated with 4 weeks of vehicle (i.e. an innocuous or inert medication) developed severe lung fibrosis on histology and lung collagen measurements associated with severe lung restriction on lung mechanics. […] Together, these findings support that MEK1/2 inhibition prevents TGF-α/EGF-mediated pulmonary fibrosis, and is a possible pharmacological strategy to treat pulmonary fibrosis.

[7] = system: established TGF-α-induced pulmonary fibrosis; assay: Rescue study of established fibrosis: lung mechanics; assay type: in vivo; conditions: CCSP/TGF-α mice, 8 weeks total Dox, treatment during last 4 weeks, vs vehicle
Procedure: (§1) To determine whether the ERK/MAPK pathway mediates the progression of established fibrosis, CCSP/TGFα mice were treated with ARRY following 4 weeks of Dox, while remaining on Dox for an additional 4 weeks (8 weeks total Dox, 4 week ARRY). Controls included CCSP/TGFα mice treated with vehicle while remaining on Dox an additional 4 weeks (8 weeks total Dox, 4 week vehicle). CCSP/TGFα mice began losing body weight after 4 weeks of Dox. […] See FIG. 6, illustrating that TGF-α was induced with doxycycline for 8 weeks in transgenic mice. ARRY added after 4 weeks of TGF-α expression attenuated weight loss, compared to vehicle-treated mice.
See FIG. 7, illustrating that TGF-α was induced with doxycycline for 8 weeks in CCSP/TGF-α transgenic mice. ARRY added after 4 weeks of TGF-α expression prevented progression of alterations in lung mechanics compared to vehicle-treated mice. *=p<0.05 compared to vehicle control CSP/− mice. *#=p<0.05 compared to CCSP/TGF-α mice.
(§2) Pulmonary Mechanics: Lung mechanics were assessed on anesthetized mice using a computerized Flexi Vent system (SCIREQ, Montreal, Canada). […] The ventilation mode was changed to forced oscillatory signal (0.5-19.6 Hz), and respiratory impedance was measured. […]

[8] = system: TGF-α-induced cellular proliferation; assay: Epithelial and mesenchymal proliferation in lung sections of CCSP/TGF-α mice; assay type: in vivo; conditions: twice daily by gavage, 4 days of TGF-α induction
Procedure: ARRY was administered to CCSP/TGF-α mice (i.e., mice expressing TGF-α in the epithelium, under control of the doxycycline (Dox)-regulatable Clara cell secretory protein promoter) twice daily by gavage, with the first dose at the time of TGF-α induction with doxycycline. Mice were sacrificed after 4 days of TGF-α induction and ARRY administration.
(§3) Administration of ARRY142886: ARRY142886 (ARRY) is a potent, highly specific, allosteric inhibitor of MEK1/2. ARRY is a second generation MEK inhibitor that targets the Ras-Raf-MEK-ERK pathway. ARRY was administered to mice twice daily by gavage, with the first dose at the time of TGF-α induction with doxycycline. Mice were then anesthetized (Isoflurane; Abbott Labs, Chicago, Ill.), and 37.5 mg/kg sterile ARRY142886 was administered by gavage using a 20 gauge feeding catheter (Harvard Apparatus, Holliston, Mass.). Mice were treated with vehicle or ARRY twice daily for up to 4 weeks. Mice were weighed at the beginning of the study and at weekly intervals.
Lung Histology and Immunohistochemistry: Mice were killed with pentobarbital sodium (65 mg/ml) euthanasia solution (Fort Dodge Animal Health, Fort Dodge, Iowa), and lungs were inflation fixed using 4% paraformaldehyde at 25 cm H2O of pressure, and then allowed to fix overnight at 4° C. […]

[9] = system: TGF-α-induced pulmonary fibrosis; assay: Prevention study: lung mechanics in TGF-α-induced pulmonary fibrosis; assay type: in vivo; conditions: CCSP/TGF-α mice, twice daily for 4 weeks from time of Dox, vs vehicle
From the text: To examine if ARRY prevented the physiologic effects of TGF-α-induced lung fibrosis, CCSP/TGF-α mice were given ARRY twice daily for 4 weeks while TGF-α was induced. […] More specifically, FIG. 3 illustrates that ARRY prevents TGF-α-mediated alterations in lung mechanics (*=p<0.05 compared to vehicle and ARRY-treated mice). […] Representative samples from four mice per group include low power (4×) and higher power (10×) of pleural fibrosis.
To induce TGF-α expression, adult transgenic mice (8-12 weeks old) were placed on Doxycycline-containing drinking water (0.5 mg/ml) and food (62.5 mg/kg). Dox-containing water was replaced three times per week.
Administration of ARRY142886: ARRY142886 (ARRY) is a potent, highly specific, allosteric inhibitor of MEK1/2. ARRY is a second generation MEK inhibitor that targets the Ras-Raf-MEK-ERK pathway. ARRY was administered to mice twice daily by gavage, with the first dose at the time of TGF-α induction with doxycycline. […]
as §2

[10] = Rescue study of established fibrosis: body weight; assay type: in vivo; conditions: CCSP/TGFα mice, 8 weeks total Dox, treatment during last 4 weeks, vs vehicle
Procedure: as §1, §3

With `C#Cc1cccc(Nc2ncnc3cc(OCCOC)c(OCCOC)cc23)c1` [erlotinib] as the molecule, how does the “fibrosis in the CCSP/TGF-α transgenic model” value [1] read?
The value was “prevented fibrosis”.

For `C=CCN(/C=C1/C(=O)O[C@H](COC)[C@@]2(C)C1=C(O)C(=O)C1=C2[C@H](OC(C)=O)C[C@]2(C)C(=O)CC[C@@H]12)CC=C` [PX-866], which “phosphorylation of ERK1/2 in treated TGF-α mice” value (ERK1/2) is on record?
Its value is “remain phosphorylated”.

Which “fibrosis in the CCSP/TGF-α transgenic model” value [1] does the source give for `COc1cc2ncnc(Nc3ccc(F)c(Cl)c3)c2cc1OCCCN1CCOCC1` [gefitinib] here?
The value was “prevented fibrosis”.

Which results are given for `Cn1cnc2c(F)c(Nc3ccc(Br)cc3Cl)c(C(=O)NOCCO)cc21` [ARRY142886]?
pulmonary fibrosis measured by lung matrix expression on lung histology [2]: reduced pulmonary fibrosis; lung fibrosis on lung histology ([3]; CCSP/TGF-α mice, twice daily for 4 weeks from time of Dox, trichrome stain): prevents TGF-α-induced pulmonary fibrosis as demonstrated by lung histology; lung fibrosis overall (4-week prevention study) ([3]; TGF-α transgenic mice, 4 weeks twice daily, vs vehicle): complete prevention of lung fibrosis; phosphorylation of ERK1/2 in lung homogenates [4]: inhibited increased phosphorylation of ERK1/2; total lung collagen [5]: prevents TGF-α-induced fibrosis as assessed by total lung collagen; lung proliferation and matrix gene expression [6]: significantly reduced lung proliferation and matrix gene expression; lung mechanics (compliance, airway resistance, elastance) [7]: improved lung mechanics; TGF-α-induced cellular proliferation (epithelial and mesenchymal) in lung sections [8]: dose-dependent inhibition of TGF-α-induced cellular proliferation; lung mechanics (airway resistance, airway and tissue elastance, compliance) [9]: no changes in lung mechanics; lung mechanics (airway resistance, airway and tissue elastance, compliance) ([9]; listed as ARRY): prevented TGFα-mediated increases in airway resistance, and airway and tissue elastance and decreases in compliance; body weight loss [10]: Body weight loss was attenuated
